From patent publication US11691972B2, “Compounds for targeted degradation of BRD9” (C4 Therapeutics, Inc., priority 2020, dated 2023)
Where two headings read alike, the source gives them in different places.

Key:
[1] = test system: HEPG2; assay: HEPG2 viability; assay type: cell-based; settings: HEPG2 cells
[2] = biological target: T1, BRD9 (Homo sapiens, UniProt Q9H8M2); assay: BRD9 binding (Ki)
T1 sequence (Q9H8M2 1-597): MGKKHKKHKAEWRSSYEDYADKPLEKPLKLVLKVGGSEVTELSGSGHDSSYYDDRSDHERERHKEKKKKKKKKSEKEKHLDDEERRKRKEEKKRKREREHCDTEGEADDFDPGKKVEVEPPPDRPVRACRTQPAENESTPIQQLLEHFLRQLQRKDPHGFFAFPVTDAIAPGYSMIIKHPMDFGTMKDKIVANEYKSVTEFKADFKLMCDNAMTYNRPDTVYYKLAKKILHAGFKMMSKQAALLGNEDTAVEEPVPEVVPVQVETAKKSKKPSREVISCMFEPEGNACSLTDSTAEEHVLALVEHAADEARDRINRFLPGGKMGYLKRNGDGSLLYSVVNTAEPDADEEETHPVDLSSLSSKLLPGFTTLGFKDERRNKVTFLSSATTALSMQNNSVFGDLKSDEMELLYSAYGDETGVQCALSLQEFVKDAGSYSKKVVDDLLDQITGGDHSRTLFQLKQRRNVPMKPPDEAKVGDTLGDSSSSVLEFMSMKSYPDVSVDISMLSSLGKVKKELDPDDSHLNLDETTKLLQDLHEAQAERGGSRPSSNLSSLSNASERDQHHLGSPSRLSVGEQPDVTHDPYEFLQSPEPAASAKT

[3] = biological target: T2, BRD4 (Homo sapiens, UniProt O60885); assay: BRD4 degradation (24 h), HiBiT 293T.92 cells; assay type: cell-based
T2 construct: endogenously expressing BRD4 with HiBiT fusion tag via CRISPR; endogenous in cells; host or cells: 293T.92 (BRD4-HiBiT), generated in-house, also expressing LgBiT ectopically
Text: Dulbecco's modified Eagle medium (DMEM) without phenol red and fetal bovine serum (FBS) were purchased from Gibco (Grand Island, N.Y., USA). Nano-Glo® HiBiT Lytic Assay System was purchased from Promega (Madison, Wis., USA). 293T.166 (BRD9-HiBiT) cell line, endogenously expressing BRD9 with HiBiT fusion tag via CRISPR and ectopically expressing LgBiT tag, was purchased from Promega (Madison, Wis., USA). 293T.167 (BRD7-HiBiT) cell line, endogenously expressing BRD7 with HiBiT fusion tag via CRISPR and ectopically expressing LgBiT tag, was purchased from Promega (Madison, Wis., USA). 293T.92 (BRD4-HiBiT) cell line, endogenously expressing BRD4 with HiBiT fusion tag via CRISPR and ectopically expressing LgBiT tag, was generated in-house. Cell culture flasks and 384-well microplates were acquired from VWR (Radnor, Pa., USA).
BRD9 degradation was determined based on quantification of luminescent signal using Nano-Glo® HiBiT Lytic Assay kit. Test compounds were added to the 384-well plate from a top concentration of 10 μM with 11 points, half log titration in duplicates. 293T.166 cells were added into 384-well plates at a cell density of 10,000 cells per well. […] BRD7 and BRD4 degradation was similarly determined with 293T.167 cells and 293T.92 cells, respectively. […] Luminescence was acquired on EnVision™ Multilabel Reader (PerkinElmer, Santa Clara, Calif., USA).

[4] = biological target: T1, BRD9; assay: BRD9 degradation kinetics; assay type: cell-based; set-up: endogenously expressing BRD9 with HiBiT fusion tag via CRISPR; host or cells: 293T.166 (BRD9-HiBiT), also expressing LgBiT ectopically
[5] = biological target: T1, BRD9; assay: Western blot of BRD9, BRD4 and BRD7 in Yamato-SS cells; assay type: cell-based; set-up: endogenous in cells; host or cells: Yamato-SS (human synovial sarcoma); settings: FIG. 3
Experimental: After treatment cells were collected, lysed in RIPA buffer supplemented with 2× proteasome/protease inhibitor, and protein concentrations were determined by Pierce™ BCA Protein Assay Kit. Samples were diluted to appropriate concentrations and run in a western blot.

[6] = biological target: CYP 2C19 (Homo sapiens, UniProt P33261); assay: CYP TDI (time-dependent inhibition); assay type: in vitro ADME
[7] = biological target: SALL4 (Homo sapiens, UniProt Q9UJQ4); assay: SALL4 degradation; assay type: cell-based; settings: one value given for IKZF1/SALL4/GSPT1
[8] = biological target: CYP 2B6 (Homo sapiens, UniProt P20813); assay: CYP inhibition 2B6; assay type: in vitro ADME
[9] = biological target: T1, BRD9; assay: In-vivo BRD9 degradation in the Aska-SS xenograft model; settings: various concentrations and times, FIG. 13
[10] = biological target: BRD9-E3 (Homo sapiens, UniProt Q96SW2+Q9H8M2); assay: BRD9-E3 dimerization; assay type: biochemical; settings: not explained
[11] = biological target: CYP 2C8 (Homo sapiens, UniProt P10632); assay: CYP inhibition 2C8; assay type: in vitro ADME
[12] = test system: SW982; assay: SW982 viability (GI50); assay type: cell-based; settings: Homo sapiens; SW982 cells
[13] = biological target: T1, BRD9; assay: Protein degradation by HiBiT luminescent readout (BRD9, BRD7, BRD4); assay type: cell-based; set-up: endogenously expressing BRD9 with HiBiT fusion tag via CRISPR; host or cells: 293T.166 (BRD9-HiBiT), also expressing LgBiT ectopically; settings: FIG. 11
[14] = Body weight change in synovial sarcoma PDX model (SA13412); assay type: in vivo, mice; settings: 50 mg/kg once a day, 25 mg/kg twice a day, 16.6 mg/kg three times a day, FIG. 24
Text: The x axis is treatment measured in days and the y axis is body weight change measured in percentage. Less than 15% loss of body weight was observed on average.

Chain of BRD9-E3 (Q96SW2 whole entry, one chain of several): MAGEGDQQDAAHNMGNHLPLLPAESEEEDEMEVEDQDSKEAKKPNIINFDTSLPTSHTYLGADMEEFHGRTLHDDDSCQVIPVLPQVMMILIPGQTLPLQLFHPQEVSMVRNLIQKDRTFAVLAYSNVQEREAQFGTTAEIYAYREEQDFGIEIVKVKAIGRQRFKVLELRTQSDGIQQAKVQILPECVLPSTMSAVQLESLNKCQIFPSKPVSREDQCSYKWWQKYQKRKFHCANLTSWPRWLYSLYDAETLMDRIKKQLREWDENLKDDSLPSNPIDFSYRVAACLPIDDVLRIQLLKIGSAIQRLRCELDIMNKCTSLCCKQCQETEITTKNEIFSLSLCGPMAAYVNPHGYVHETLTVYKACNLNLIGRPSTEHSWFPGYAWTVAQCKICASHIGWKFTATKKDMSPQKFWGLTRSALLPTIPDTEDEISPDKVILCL
Chain of CYP 2C19 (P33261 whole entry): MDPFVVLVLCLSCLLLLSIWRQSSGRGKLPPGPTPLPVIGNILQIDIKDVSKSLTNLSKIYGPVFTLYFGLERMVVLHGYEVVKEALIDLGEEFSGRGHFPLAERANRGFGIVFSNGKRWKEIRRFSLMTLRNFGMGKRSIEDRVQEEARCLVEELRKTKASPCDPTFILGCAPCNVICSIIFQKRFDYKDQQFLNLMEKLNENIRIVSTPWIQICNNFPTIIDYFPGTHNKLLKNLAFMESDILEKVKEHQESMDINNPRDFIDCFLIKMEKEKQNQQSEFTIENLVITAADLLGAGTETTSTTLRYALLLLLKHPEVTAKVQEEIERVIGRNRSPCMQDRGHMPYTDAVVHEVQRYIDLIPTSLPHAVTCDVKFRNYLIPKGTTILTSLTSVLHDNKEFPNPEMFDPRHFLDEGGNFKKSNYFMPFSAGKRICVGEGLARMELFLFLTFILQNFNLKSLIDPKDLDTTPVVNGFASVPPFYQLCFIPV
Chain of SALL4 (Q9UJQ4 whole entry, species assumed): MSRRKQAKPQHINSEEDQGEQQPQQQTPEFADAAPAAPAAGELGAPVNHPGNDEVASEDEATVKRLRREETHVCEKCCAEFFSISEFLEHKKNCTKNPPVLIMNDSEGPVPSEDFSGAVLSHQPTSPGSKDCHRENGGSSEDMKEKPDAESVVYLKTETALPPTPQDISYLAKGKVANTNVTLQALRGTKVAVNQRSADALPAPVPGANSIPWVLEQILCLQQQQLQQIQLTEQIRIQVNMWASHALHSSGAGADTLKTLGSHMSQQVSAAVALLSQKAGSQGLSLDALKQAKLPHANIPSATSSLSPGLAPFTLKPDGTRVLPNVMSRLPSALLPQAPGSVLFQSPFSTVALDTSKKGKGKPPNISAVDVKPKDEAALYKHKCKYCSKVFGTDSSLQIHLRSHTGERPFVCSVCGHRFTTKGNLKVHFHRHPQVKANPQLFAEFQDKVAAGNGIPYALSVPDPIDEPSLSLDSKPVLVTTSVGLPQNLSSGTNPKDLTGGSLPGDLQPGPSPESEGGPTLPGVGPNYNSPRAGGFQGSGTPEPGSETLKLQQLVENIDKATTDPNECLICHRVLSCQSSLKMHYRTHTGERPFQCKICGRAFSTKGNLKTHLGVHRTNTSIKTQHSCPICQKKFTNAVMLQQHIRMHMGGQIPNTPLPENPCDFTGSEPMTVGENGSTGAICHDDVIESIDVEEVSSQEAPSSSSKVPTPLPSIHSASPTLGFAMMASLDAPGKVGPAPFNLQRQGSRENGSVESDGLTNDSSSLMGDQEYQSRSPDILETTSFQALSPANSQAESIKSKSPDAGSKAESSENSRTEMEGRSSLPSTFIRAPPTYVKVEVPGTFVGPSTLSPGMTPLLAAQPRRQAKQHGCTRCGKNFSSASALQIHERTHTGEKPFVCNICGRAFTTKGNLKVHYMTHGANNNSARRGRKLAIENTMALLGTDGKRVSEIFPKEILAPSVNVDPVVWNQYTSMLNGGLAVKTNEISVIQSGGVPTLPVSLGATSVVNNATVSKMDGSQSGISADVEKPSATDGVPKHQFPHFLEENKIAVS
Chain of CYP 2B6 (P20813 whole entry): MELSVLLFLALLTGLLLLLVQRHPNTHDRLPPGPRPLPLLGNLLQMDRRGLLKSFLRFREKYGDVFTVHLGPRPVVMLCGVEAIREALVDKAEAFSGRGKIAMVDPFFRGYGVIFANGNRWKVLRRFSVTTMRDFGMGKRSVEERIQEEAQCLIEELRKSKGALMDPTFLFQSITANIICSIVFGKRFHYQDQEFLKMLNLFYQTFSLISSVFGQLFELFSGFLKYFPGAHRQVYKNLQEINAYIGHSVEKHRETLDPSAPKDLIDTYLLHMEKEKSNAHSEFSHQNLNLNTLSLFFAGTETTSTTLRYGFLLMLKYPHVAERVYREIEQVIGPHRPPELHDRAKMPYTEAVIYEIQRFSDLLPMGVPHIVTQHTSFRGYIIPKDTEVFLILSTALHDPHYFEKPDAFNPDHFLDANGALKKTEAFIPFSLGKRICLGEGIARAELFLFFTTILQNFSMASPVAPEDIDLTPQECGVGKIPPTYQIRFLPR
Chain of CYP 2C8 (P10632 whole entry): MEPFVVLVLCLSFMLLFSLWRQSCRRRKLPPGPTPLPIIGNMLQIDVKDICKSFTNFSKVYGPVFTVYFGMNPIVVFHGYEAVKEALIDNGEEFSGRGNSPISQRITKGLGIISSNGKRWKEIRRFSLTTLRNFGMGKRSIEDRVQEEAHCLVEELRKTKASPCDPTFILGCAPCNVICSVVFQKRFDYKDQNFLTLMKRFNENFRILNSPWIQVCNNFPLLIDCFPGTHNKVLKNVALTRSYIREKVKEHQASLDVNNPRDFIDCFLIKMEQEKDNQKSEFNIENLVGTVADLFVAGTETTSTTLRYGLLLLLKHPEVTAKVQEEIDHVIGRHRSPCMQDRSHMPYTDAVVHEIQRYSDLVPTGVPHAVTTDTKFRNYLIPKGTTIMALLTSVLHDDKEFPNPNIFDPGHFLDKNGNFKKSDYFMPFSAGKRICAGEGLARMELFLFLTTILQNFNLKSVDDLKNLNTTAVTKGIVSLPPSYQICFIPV

| Structure (SMILES) | HEPG2 Viability [1] [µM] | Ki [2] [µM] | Emax [3] [%] | DC50 ([3]; 24 h, read-out: BRD4 degradation (24 h), IP) [µM] | BRD9 Degradation kinetics, first value ([4]; first of three values, not explained) [nM] | BRD9 Degradation kinetics, second value ([4]; second of three values, not explained) [nM] | BRD9 Degradation kinetics, third value (rate) ([4]; third of three values) [h⁻¹] | degradation of BRD9 versus BRD4 and BRD7, western blot [5] | IC50 ([6]; 2C19, first of two values in brackets, read-out: CYP TDI 2C19, first value) [µM] | IC50 ([6]; 2C19, second of two values in brackets, read-out: CYP TDI 2C19, second value) [µM] | DC50 [7] [µM] | IC50 [8] [µM] | in-vivo BRD9 degradation (normalized concentration) [9] | BRD9-E3 dimerization, first value ([10]; first of three values) [nM] | BRD9-E3 dimerization, second value ([10]; second of three values) [nM] | BRD9-E3 dimerization, third value ([10]; third of three values) [%] | IC50 [11] [µM] | GI50 [12] [µM] | protein degradation levels by HiBiT luminescent readout, BRD9 versus BRD7 and BRD4 [13] | loss of body weight on average [14] |
| --- | --- | --- | --- | --- | --- | --- | --- | --- | --- | --- | --- | --- | --- | --- | --- | --- | --- | --- | --- | --- |
| COc1cc(-c2cn(C)c(=O)c(C)c2C)cc(OC)c1CN1CCC(N2CCN(c3ccc(NC4CCC(=O)NC4=O)cc3F)CC2)C(F)(F)C1 (centres unmarked) [Compound 172, 3-[4-[4-[1-[[2,6-dimethoxy-4-(1,4,5-trimethyl-6-oxo-3-pyridyl)phenyl]methyl]-3,3-difluoro-4-piperidyl]piperazin-1-yl]-3-fluoro-anilino]piperidine-2,6-dione] | >9.99 | 0.082 | 81 | 2 | 11 | > 832 | 1.81 | dose response degradation specific to BRD9, and not bromodomain containing proteins BRD4 and BRD7 | > 50 | 24 | > 9.99 | 0.1 | dose dependent in-vivo BRD9 degradation | 120 | 461 | 13 | 30 | > 10 | – | – |
| COc1cc(-c2cn(C)c(=O)c(C)c2C)cc(OC)c1CN1CCC(N2CCN(c3ccc(NC4CCC(=O)NC4=O)cc3F)CC2)C(F)(F)C1 (single isomer, unassigned) [Compound 176, 3-[4-[4-[1-[[2,6-dimethoxy-4-(1,4,5-trimethyl-6-oxo-3-pyridyl)phenyl]methyl]-3,3-difluoro-4-piperidyl]piperazin-1-yl]-3-fluoro-anilino]piperidine-2,6-dione] | – | – | – | – | – | – | – | – | – | – | – | – | – | – | – | – | – | – | selective degradation | Less than 15% |
